Data from US6391538B1, “Stabilization of implantable bioprosthetic tissue” (The Children's Hospital of Philadelphia, priority 2000, dated 2002).
Values joined by “and” are separate entries in the source; they are usually repeats but may differ in a detail not shown here. Equal entries are not always repeated.

Experiments:
porcine aortic cusps = assay: Subdermal calcification study in rats, porcine aortic cusps; format: in vivo
Method: In a first method of cross-linking bioprosthetic tissue, four separate cross-linking solutions were prepared:
1) 0.1 molar TGA in 0.05 molar HEPES buffer at pH 7.4,
2) 0.1 molar TGA in 0.05 boric acid-borax buffer at pH 9.0,
3) 0.1 molar Denacol 521™ (Nagase Chemical Co., Japan) in 0.05 molar HEPES buffer at pH 7.4, and
4) 0.05 molar HEPES buffer (pH 7.4) containing 0.6% (v/v) glutaraldehyde.
Twenty fresh porcine aortic cusps were added to separate 100 milliliter aliquots of each of the four solutions (i.e. using a total of eighty cusps). The cusps and solutions were maintained with constant shaking at room temperature for up to ten days without changing the solution. At selected times, a small section was removed from each of the cusps in each of the cross-linking reactions and analyzed by differential scanning calorimetry to determine the thermal shrinkage temperature (Ts). Cross-linking reactions were considered complete when the value of Ts remained substantially constant over time. Cusps treated in this manner were maintained in the cross-linking solution for more than 20 days prior to use in subsequent experiments. […]
Subdermal calcification studies were performed in rats using tissues treated and stored as described above. Following treatment by either of the two methods described above, the tissues were rinsed thoroughly with excess sterile saline solution immediately prior to implantation. Tissues were implanted subdermally (1 tissue sample per rat, 10 rats per treatment method). Twenty-one days following implantation, the tissues were recovered and their calcium content was measured in samples taken from each tissue.

[1] = test system: porcine aortic wall segments; assay: Subdermal calcification study in rats, porcine aortic wall; format: in vivo; conditions: Group III: TGA second method, then treated with and stored in formalin-containing solution, 21 days, average ± standard error
Method: (§1) In a second method of cross-linking bioprosthetic tissue, separate 100 milliliter aliquots of […] TGA in 0.10 molar HEPES buffer at pH 7.4 were prepared. The following were added to individual aliquots of this solution.
(§2) The tissues and solutions were maintained at room temperature with constant shaking for up to seven days, during which time the pH of each cross-linking reaction was monitored. For selected reactions, the reaction mixture solution was replaced every 24 hours with a freshly-prepared 100 milliliter aliquot of 0.1 molar TGA in 0.10 molar HEPES buffer at pH 7.4. At selected times, a small section was removed from each tissue in each of the stabilization reaction mixtures, and the section was analyzed by differential scanning calorimetry to determine the thermal shrinkage temperature (Ts). After seven days of reaction, one group of each of the tissues was transferred to 100 milliliters of 0.05 molar phosphate buffer containing 4% (v/v) formalin and stored in this solution prior to use in subsequent experiments.
(§3) Subdermal calcification studies were performed in rats using tissues treated and stored as described above. […] Twenty-one days following implantation, the tissues were recovered and their calcium content was measured in samples taken from each tissue.

bovine pericardium = assay: Subdermal calcification study in rats, bovine pericardium; format: in vivo; conditions: Group III: TGA second method, then treated with and stored in formalin-containing solution, 21 days, average ± standard error
Method: as §1, §2, §3

A10 cells = assay: Relative biocompatibility of treated collagen surfaces, survival of A10 cells; format: cell-based; conditions: A10 cells on denatured bovine type I collagen film treated with 0.2% (v/v) glutaraldehyde (24 hours, room temperature) or 0.1 molar TGA (24 hours, 37° C.), pH 7.4; about 24 hours of culturing
Method: Denatured (100° C., 1 hour) bovine type I collagen was applied as a film to duplicate culture surfaces. One surface was treated by contacting it with a solution comprising 0.2% (v/v) glutaraldehyde at pH 7.4 for 24 hours at room temperature (i.e. about 20° C.). Another surface was treated by contacting it with a solution comprising 0.1 molar TGA at pH 7.4 for 24 hours at 37° C. Both surfaces were rinsed extensively using phosphate-buffered saline (pH 7.4) in order to remove non-reacted compounds. A10 cells (obtained from the American Type Culture Collection; Gaithersburg, Md.) were provided to both surfaces, and survival of the cells was monitored. A high proportion (estimated at 30% or more of cells) which were provided to the glutaraldehyde-treated collagen surface appeared to be dead following about 24 hours of culturing, with significant amounts of cell debris observed.

[2] = Thermal shrinkage temperature (Ts) by differential scanning calorimetry; format: physicochemical, porcine; conditions: cusp tissue, 0.1 molar TGA and 0.1 molar HEPES, solution replenished every 24 hours, seven days
Method: (§4) Twenty fresh porcine aortic cusps were added to separate 100 milliliter aliquots of each of the four solutions (i.e. using a total of eighty cusps). The cusps and solutions were maintained with constant shaking at room temperature for up to ten days without changing the solution. At selected times, a small section was removed from each of the cusps in each of the cross-linking reactions and analyzed by differential scanning calorimetry to determine the thermal shrinkage temperature (Ts). Cross-linking reactions were considered complete when the value of Ts remained substantially constant over time. Cusps treated in this manner were maintained in the cross-linking solution for more than 20 days prior to use in subsequent experiments.
as §2, with “After seven days of reaction, one group of each of the tissues was transferred to 100 milliliters of 0.05 molar phosphate buffer containing 4% (v/v) formalin and stored in this solution prior to use in subsequent experiments.” left out

[3] = pH monitoring of cross-linking reactions; format: physicochemical
Method: as §4
as §2, with “After seven days of reaction, one group of each of the tissues was transferred to 100 milliliters of 0.05 molar phosphate buffer containing 4% (v/v) formalin and stored in this solution prior to use in subsequent experiments.” left out

[4] = cusps cross-linked with 0.1 molar TGA in borate buffer pH 9.0, first method, subdermal in rats, 21 days

Structure (SMILES) | calcium content, average value ± standard error (porcine aortic cusps; D: cusps cross-linked with 0.1 molar TGA in HEPES buffer pH 7.4, first method, subdermal in rats, 21 days) | calcium content of individual tissue samples (porcine aortic cusps; D: cusps cross-linked with 0.1 molar TGA in HEPES buffer pH 7.4, first method, subdermal in rats, 21 days, listed as D) | calcium content of individual tissue samples (porcine aortic cusps; [4]) | calcium content, average value ± standard error (porcine aortic cusps; [4]) | Calcium (micrograms/milligram of dry tissue) (porcine aortic cusps; porcine aortic cusps, Group III: TGA second method, then treated with and stored in formalin-containing solution, subdermal in rats, 21 days, average ± standard error) | post-implantation calcification of the tissue, result in words (porcine aortic cusps; tissues treated by first and second stabilization methods, compared with glutaraldehyde treatment) | Calcium (micrograms/milligram of dry tissue) [1] | Calcium (micrograms/milligram of dry tissue) (bovine pericardium) | proportion of cells which appeared to be dead (A10 cells) | thermal shrinkage temperature (Ts) [2] | pH of the stabilization reaction mixture ([3]; first stabilization method, solution not changed, seven-day reaction period) | pH of the stabilization reaction mixture ([3]; second method, reaction mixture solution replaced every 24 hours) | calcium content, average value ± standard error (porcine aortic cusps; cusps cross-linked with 0.6% (v/v) glutaraldehyde in 0.05 molar HEPES pH 7.4, first method, subdermal in rats, 21 days) | calcium content of individual tissue samples (porcine aortic cusps; cusps cross-linked with 0.6% (v/v) glutaraldehyde in 0.05 molar HEPES pH 7.4, first method, subdermal in rats, 21 days, listed as A)
C1OC1CN(CC1CO1)CC1CO1 (stereo not drawn) [TGA, triglycidyl amine] | 4.13 ± 2.14 micrograms of calcium per milligram of tissue | 1.59 micrograms of calcium per milligram of tissue and 17.58 micrograms of calcium per milligram of tissue and 1.107 micrograms of calcium per milligram of tissue and 1.021 micrograms of calcium per milligram of tissue and 0.615 micrograms of calcium per milligram of tissue and 1.30 micrograms of calcium per milligram of tissue and 8.75 micrograms of calcium per milligram of tissue and 1.14 micrograms of calcium per milligram of tissue | 1.318 micrograms of calcium per milligram of tissue and 0.811 micrograms of calcium per milligram of tissue and 1.31 micrograms of calcium per milligram of tissue and 2.13 micrograms of calcium per milligram of tissue and 1.20 micrograms of calcium per milligram of tissue and 3.85 micrograms of calcium per milligram of tissue | 1.769 micrograms of calcium per milligram of tissue | 18.07 ± 9.19 micrograms/milligram of dry ti | inhibits post-implantation calcification of the tissue relative to glutaraldehyde treatment | 21.17 ± 1.81 micrograms/milligram of dry ti | 7.43 ± 3.47 micrograms/milligram of dry ti | substantially undetectable proportion | about 83 °C | ~11.5 | ≤ 8 | – | –
O=CCCCC=O [glutaraldehyde, reference compound] | – | – | – | – | – | – | – | – | ≥ 30% | – | – | – | 106.69 ± 9.81 micrograms of calcium per milligram of tissue | 63.28 micrograms of calcium per milligram of tissue and 72.44 micrograms of calcium per milligram of tissue and 117.67 micrograms of calcium per milligram of tissue and 131.43 micrograms of calcium per milligram of tissue and 158.70 micrograms of calcium per milligram of tissue and 140.34 micrograms of calcium per milligram of tissue and 141.91 micrograms of calcium per milligram of tissue and 94.44 micrograms of calcium per milligram of tissue and 89.60 micrograms of calcium per milligram of tissue and 87.42 micrograms of calcium per milligram of tissue
